What was measured:
Settings in all cases: exposure time: 72 h
[1] = tested on: E13 (patient-derived glioblastoma stem cells of classical subtype); test: surviving fraction (nuclei count normalised to DMSO); higher = more cells surviving (less toxic)
[2] = tested on: E21 (patient-derived glioblastoma stem cells of mesenchymal subtype); test: as above
[3] = tested on: E28 (patient-derived glioblastoma stem cells of classical subtype); test: as above
[4] = tested on: E31 (patient-derived glioblastoma stem cells of proneural subtype); test: as above
[5] = tested on: E34 (patient-derived glioblastoma stem cells of proneural subtype); test: as above
[6] = tested on: E57 (patient-derived glioblastoma stem cells of mesenchymal subtype); test: as above
[7] = tested on: FT3469 (normal neural stem cell line); test: as above
[8] = tested on: E13; test: phenotypic distance (Euclidean, principal components) from DMSO controls (arbitrary units); higher = stronger morphological change
[9] = tested on: E21; test: as above
[10] = tested on: E28; test: as above
[11] = tested on: E31; test: as above
[12] = tested on: E34; test: as above
[13] = tested on: E57; test: as above
[14] = tested on: FT3469; test: as above
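Throughout, for phenotypic distance (Euclidean, principal components) from DMSO controls: cell Painting imaging in 384-well plates, CellProfiler features reduced to at least 20 principal components, Euclidean distance versus same-plate DMSO vehicle wells (0.1% v/v), median over six images per well.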
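Throughout, for surviving fraction (nuclei count normalised to DMSO): nuclei counted by high-content imaging of Hoechst-stained cells in laminin-coated 384-well plates, relative to 0.1% DMSO vehicle wells, with staurosporine as cell-death control.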

COc1ccc(/C=C\c2cc(OC)c(OC)c(OC)c2)cc1OP(=O)(O)O [Fosbretabulin Disodium]
Settings | phenotypic distance | surviving fraction
[1], 4.1 nM | – | 0.8
[1], 12.3 nM | – | 0.905
[1], 37 nM | – | 0.361
[1], 111.1 nM | – | 0.241
[1], 333.3 nM | – | 0.171
[1], 1000 nM | – | 0.175
[1], 3000 nM | – | 0.0977
[2], 4.1 nM | – | 0.889
[2], 12.3 nM | – | 0.951
[2], 37 nM | – | 0.847
[2], 111.1 nM | – | 0.415
[2], 333.3 nM | – | 0.176
[2], 1000 nM | – | 0.101
[2], 3000 nM | – | 0.0981
[3], 4.1 nM | – | 1.09
[3], 12.3 nM | – | 1
[3], 37 nM | – | 0.905
[3], 111.1 nM | – | 0.938
[3], 333.3 nM | – | 0.894
[3], 1000 nM | – | 0.41
[3], 3000 nM | – | 0.293
[4], 4.1 nM | – | 0.927
[4], 12.3 nM | – | 1.01
[4], 37 nM | – | 0.765
[4], 111.1 nM | – | 0.917
[4], 333.3 nM | – | 0.54
[4], 1000 nM | – | 0.123
[4], 3000 nM | – | 0.0441
[5], 4.1 nM | – | 0.966
[5], 12.3 nM | – | 0.962
[5], 37 nM | – | 1.06
[5], 111.1 nM | – | 0.942
[5], 333.3 nM | – | 0.86
[5], 1000 nM | – | 0.521
[5], 3000 nM | – | 0.348
[6], 4.1 nM | – | 0.953
[6], 12.3 nM | – | 0.934
[6], 37 nM | – | 0.943
[6], 111.1 nM | – | 0.986
[6], 333.3 nM | – | 0.604
[6], 1000 nM | – | 0.077
[6], 3000 nM | – | 0.0927
[7], 4.1 nM | – | 0.907
[7], 12.3 nM | – | 1.03
[7], 37 nM | – | 1.03
[7], 111.1 nM | – | 0.976
[7], 333.3 nM | – | 0.745
[7], 1000 nM | – | 0.503
[7], 3000 nM | – | 0.346
[8], 4.1 nM | 1.22 | –
[8], 12.3 nM | 2.08 | –
[8], 37 nM | 5.08 | –
[8], 111.1 nM | 4.95 | –
[8], 333.3 nM | 5.64 | –
[8], 1000 nM | 8.31 | –
[8], 3000 nM | 7.96 | –
[9], 4.1 nM | 0.897 | –
[9], 12.3 nM | 0.887 | –
[9], 37 nM | 1.98 | –
[9], 111.1 nM | 5.67 | –
[9], 333.3 nM | 6.69 | –
[9], 1000 nM | 8.1 | –
[9], 3000 nM | 6.31 | –
[10], 4.1 nM | 0.427 | –
[10], 12.3 nM | 0.345 | –
[10], 37 nM | 0.559 | –
[10], 111.1 nM | 0.674 | –
[10], 333.3 nM | 1.52 | –
[10], 1000 nM | 3.18 | –
[10], 3000 nM | 3.86 | –
[11], 4.1 nM | 0.483 | –
[11], 12.3 nM | 0.846 | –
[11], 37 nM | 0.502 | –
[11], 111.1 nM | 0.681 | –
[11], 333.3 nM | 1.6 | –
[11], 1000 nM | 4.42 | –
[11], 3000 nM | 7.65 | –
[12], 4.1 nM | 0.709 | –
[12], 12.3 nM | 0.552 | –
[12], 37 nM | 0.5 | –
[12], 111.1 nM | 0.935 | –
[12], 333.3 nM | 1.29 | –
[12], 1000 nM | 3.14 | –
[12], 3000 nM | 7.56 | –
[13], 4.1 nM | 0.784 | –
[13], 12.3 nM | 0.887 | –
[13], 37 nM | 0.575 | –
[13], 111.1 nM | 1.01 | –
[13], 333.3 nM | 2.68 | –
[13], 1000 nM | 5.08 | –
[13], 3000 nM | 5.09 | –
[14], 4.1 nM | 0.525 | –
[14], 12.3 nM | 0.86 | –
[14], 37 nM | 0.542 | –
[14], 111.1 nM | 0.517 | –
[14], 333.3 nM | 1.3 | –
[14], 1000 nM | 2.97 | –
[14], 3000 nM | 3.41 | –

Source: the supplement of paper PMC13207355
